No end group written: not given here.
Experiments:
Test in all cases: biochemical
Format in all cases: binding
HLA-DR DRB1*0101 (DR1) = HLA-DR DRB1*0101 (DR1) (Homo sapiens, UniProt P01903+P01911, A100R/D57E/F55L/F60I/F76Y/I96L/L162R/M171V/P40L/Q125E/R42F/V115G/Y59C); conditions: DRB1 *0101
HLA-DR DRB1*0301 (DR3) = HLA-DR DRB1*0301 (DR3) (Homo sapiens, UniProt P01903+P01911, A100K/A102G/A103R/A169T/F55Y/I96L/K41T/L162R/M171V/P40S/Q125H/Q178H/Q39Y/R42S/S66N/T106N/T262R/W38E/Y61H)
HLA-DR DRB1*0401 (DR4) = HLA-DR DRB1*0401 (DR4) (Homo sapiens, UniProt P01903+P01911, A100K/A169T/F76Y/I96L/K127E/L162R/M171V/N62H/P40V/Q125Y/R42H/S133A/S149N/S66Y/V115G/V209L/W38E); conditions: DRB1 *0401
HLA-DR DRB1*0701 (DR7) = HLA-DR DRB1*0701 (DR7) (Homo sapiens, UniProt P01903+P01911, A100R/A102G/A103Q/D57E/D86V/E43K/F76Y/K127E/L162R/M171V/P40G/Q125H/Q99D/R33Q/R42Y/R54Q/S133A/S66F/T210M/V115G/Y107V/Y59L/Y89S); conditions: DRB1 *0701
HLA-DR DRB1*0802 (DR8) = HLA-DR DRB1*0802 (DR8) (Homo sapiens, UniProt P01903+P01911, A100R/A103L/A169T/F76Y/H45Y/I96F/K41T/L162R/M171V/P40S/Q125H/Q178H/Q39Y/Q99D/R218S/R42G/S66Y/V115G/W38E)
HLA-DR DRB1*0901 (DR9) = HLA-DR DRB1*0901 (DR9) (Homo sapiens, UniProt P01903+P01911, A100R/A103E/D57H/D86V/F55Y/F60I/F76Y/I96F/K127E/L162R/M171V/P40D/Q125H/Q99R/R33Q/R42F/S133A/S66N/T210M/V115G/W38K/Y107V/Y59G/Y89S); conditions: DRB1 *0901
HLA-DR DRB1*1302 (DR13) = HLA-DR DRB1*1302 (DR13) (Homo sapiens, UniProt P01903+P01911, A100E/A169T/K41T/L162R/M171V/P40S/Q125H/Q178H/Q39Y/Q99D/R42S/S66N/T262R/V115G/W38E/Y61H); conditions: DRBI *1302
HLA-DR DRB1*1501 (DR15) = HLA-DR DRB1*1501 (DR15) (Homo sapiens, UniProt P01903+P01911); conditions: DRBI *1501
HLA-DR DRB3*0101 (DR52) = HLA-DR DRB3*0101 (DR52) (Homo sapiens, UniProt P01903+P79483)
HLA-DR DRB4*0101 (DR53) = HLA-DR DRB4*0101 (DR53) (Homo sapiens, UniProt P01903+P13762, G164S); conditions: DRB4 *0101
HLA-DR DRB5*0101 (DR51) = HLA-DR DRB5*0101 (DR51) (Homo sapiens, UniProt P01903+Q30154); conditions: DRB5 *0101
HLA-DR DRB1*1101 (DR11) = HLA-DR DRB1*1101 (DR11) (Homo sapiens, UniProt P01903+P01911, A100R/A169T/A87E/I96F/K41T/L162R/M171V/P40S/Q125H/Q178H/Q39Y/Q99D/R42S/S66Y/T262R/V115G/W38E); conditions: DRB1 *1101
Chain of HLA-DR DRB1*1101 (DR11) (P01903 26-254 limits assumed, other chains not shown): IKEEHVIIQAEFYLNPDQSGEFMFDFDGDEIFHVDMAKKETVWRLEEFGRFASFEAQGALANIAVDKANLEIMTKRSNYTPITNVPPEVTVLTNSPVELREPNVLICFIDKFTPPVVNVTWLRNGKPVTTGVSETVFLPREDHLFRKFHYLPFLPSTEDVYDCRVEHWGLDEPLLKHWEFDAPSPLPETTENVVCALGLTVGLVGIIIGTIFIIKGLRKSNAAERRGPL

Chain of HLA-DR DRB1*0301 (DR3) (P01903 26-254 limits assumed, other chains not shown): as above
Chain of HLA-DR DRB1*1302 (DR13) (P01903 26-254 limits assumed, other chains not shown): as above

Compound	IC50 (HLA-DR DRB1*0101 (DR1)) [nM]	IC50 (HLA-DR DRB1*0301 (DR3)) [µM]	IC50 (HLA-DR DRB1*0401 (DR4)) [µM]	IC50 (HLA-DR DRB1*0701 (DR7)) [µM]	IC50 (HLA-DR DRB1*0802 (DR8)) [nM]	IC50 (HLA-DR DRB1*0901 (DR9)) [µM]	IC50 (HLA-DR DRB1*1302 (DR13)) [nM]	IC50 (HLA-DR DRB1*1501 (DR15)) [nM]	IC50 (HLA-DR DRB3*0101 (DR52)) [µM]	IC50 (HLA-DR DRB4*0101 (DR53)) [nM]	IC50 (HLA-DR DRB5*0101 (DR51)) [nM]	IC50 (HLA-DR DRB1*1101 (DR11)) [µM]
EDFFKLERDMKINCS	2710	0.468	0.226	8.55	1440	> 52.3	3190	> 3490	4.04	7890	3490	–
CC(C)C[C@H](NC(=O)[C@@H](NC(=O)[C@H](CCC(=O)O)NC(=O)[C@H](C)NC(=O)[C@H](C)NC(=O)[C@H](C)NC(=O)[C@H](CCC(N)=O)NC(=O)[C@@H](NC(=O)[C@@H](NC(=O)[C@H](Cc1ccccc1)NC(=O)[C@H](C)NC(=O)[C@H](C)NC(=O)[C@@H](N)C(C)C)[C@@H](C)O)C(C)C)[C@@H](C)O)C(=O)N[C@@H](CO)C(=O)N[C@@H](CCC(=O)O)C(=O)O	14	> 75	0.058	0.793	1420	0.127	–	18200	2.12	464	378	–
CC(C)C[C@H](NC(=O)[C@H](Cc1ccccc1)NC(=O)CNC(=O)[C@H](CC(C)C)NC(=O)[C@H](CO)NC(=O)[C@H](CC(C)C)NC(=O)[C@H](CO)NC(=O)[C@H](C)NC(=O)[C@H](C)NC(=O)[C@H](CCCNC(=N)N)NC(=O)[C@H](C)NC(=O)[C@H](CC(C)C)NC(=O)[C@H](CC(C)C)NC(=O)[C@H](CC(C)C)NC(=O)[C@@H]1CCCN1)C(=O)O	10	> 81.8	–	–	37	0.058	12	–	> 9.74	52	151	–
KLKLYTGEATRTGDR	178	118	0.015	8.23	2010	> 78.9	841	18	5.3	14800	–	–
CSCC[C@H](NC(=O)CNC(=O)CNC(=O)[C@H](CCCNC(=N)N)NC(=O)[C@@H](NC(=O)[C@H](CCC(N)=O)NC(=O)[C@H](C)NC(=O)[C@@H](NC(=O)[C@@H](NC(=O)[C@H](CC(C)C)NC(=O)[C@H](Cc1c[nH]cn1)NC(=O)[C@H](Cc1ccc(O)cc1)NC(=O)[C@H](CCCCN)NC(=O)[C@H](Cc1ccccc1)NC(=O)[C@@H](N)CCSC)[C@@H](C)O)C(C)C)C(C)C)C(=O)O	16	29	0.018	0.072	70	0.266	1620	1200	3.65	–	5.8	–
CC[C@H](C)[C@H](NC(=O)[C@H](CS)NC(=O)[C@H](Cc1c[nH]cn1)NC(=O)[C@H](C)NC(=O)[C@H](C)NC(=O)[C@@H](NC(=O)[C@H](CC(C)C)NC(=O)[C@@H](NC(=O)[C@H](Cc1c[nH]c2ccccc12)NC(=O)[C@@H](N)CCC(N)=O)C(C)C)[C@@H](C)O)C(=O)N[C@@H](CCCNC(=N)N)C(=O)N[C@@H](CC(N)=O)C(=O)N[C@@H](CCCCN)C(=O)N[C@@H](CO)C(=O)N[C@H](C(=O)O)C(C)C	50	–	19.4	0.214	2600	0.967	2060	13600	7.34	3800	35	2.17
CC[C@H](C)[C@H](NC(=O)[C@H](CO)NC(=O)[C@H](CC(C)C)NC(=O)[C@@H](NC(=O)[C@H](CC(C)C)NC(=O)[C@@H](N)CC(=O)O)C(C)C)C(=O)N[C@@H](C)C(=O)N[C@@H](CC(C)C)C(=O)N[C@@H](CO)C(=O)N[C@H](C(=O)NCC(=O)N[C@@H](CS)C(=O)N[C@H](C(=O)NCC(=O)N[C@@H](C)C(=O)O)[C@@H](C)O)C(C)C	1200	–	13	4.03	> 245000	2.2	98	18200	> 14.9	459	> 100000	> 200
SLSLGFLFLLFFWLD	11400	–	4.71	22.7	> 123000	24.6	639	11400	3.71	> 11000	66700	100
CC(C)C[C@H](NC(=O)CNC(=O)[C@H](CC(N)=O)NC(=O)[C@@H](N)Cc1ccc(O)cc1)C(=O)N[C@@H](CC(C)C)C(=O)N1CCC[C@H]1C(=O)N1CCC[C@H]1C(=O)N[C@@H](Cc1ccc(O)cc1)C(=O)N[C@@H](C)C(=O)N[C@@H](CO)C(=O)N[C@@H](CS)C(=O)N[C@@H](Cc1c[nH]cn1)C(=O)N[C@@H](CC(C)C)C(=O)N[C@H](C(=O)N[C@@H](CCC(=O)O)C(=O)O)[C@@H](C)O	42	–	6.19	> 83.3	14000	8.02	11700	252	> 15	> 10900	≥ 100000	5.3
CC[C@H](C)[C@H](NC(=O)[C@H](CO)NC(=O)[C@@H](NC(=O)CN)C(C)C)C(=O)N[C@@H](Cc1c[nH]c2ccccc12)C(=O)N[C@@H](CC(N)=O)C(=O)N1CCC[C@H]1C(=O)N[C@H](C(=O)N[C@@H](CC(C)C)C(=O)N[C@@H](CC(C)C)C(=O)N[C@@H](Cc1c[nH]c2ccccc12)C(=O)N[C@@H](CCC(N)=O)C(=O)N1CCC[C@H]1C(=O)N[C@H](C(=O)N1CCC[C@H]1C(=O)O)[C@@H](C)CC)[C@@H](C)CC	44	56.3	–	4.99	11000	3.98	–	5	4.43	492	523	–
NGVLQGITSWGPEPC	1090	–	8.43	2.29	52200	50.1	> 17500	835	> 14.4	5760	> 100000	32.4
CC[C@H](C)[C@H](NC(=O)[C@H](CO)NC(=O)[C@H](CO)NC(=O)[C@H](CC(=O)O)NC(=O)[C@H](C)NC(=O)[C@H](CC(N)=O)NC(=O)[C@@H](NC(=O)[C@H](Cc1ccc(O)cc1)NC(=O)[C@H](C)NC(=O)[C@@H](NC(=O)CNC(=O)[C@H](CCCNC(=N)N)NC(=O)[C@@H](N)CCC(=O)O)C(C)C)[C@@H](C)CC)C(=O)N[C@@H](CCC(=O)O)C(=O)NCC(=O)O	2440	–	6.76	34	> 163000	25.5	3690	30300	6.85	87	≥ 200000	> 50
CC(C)C[C@H](NC(=O)[C@H](CCC(=O)O)NC(=O)[C@H](CCCCN)NC(=O)[C@H](C)NC(=O)[C@H](CC(C)C)NC(=O)[C@@H](NC(=O)[C@H](CO)NC(=O)[C@H](CCCNC(=N)N)NC(=O)[C@H](CC(=O)O)NC(=O)[C@H](CC(C)C)NC(=O)[C@H](Cc1c[nH]c2ccccc12)NC(=O)[C@H](Cc1ccccc1)NC(=O)[C@H](Cc1ccccc1)NC(=O)[C@H](CC(C)C)NC(=O)[C@@H](N)CC(C)C)C(C)C)C(=O)O	2.9	0.0063	0.0026	–	163	0.518	24	34	0.086	7.5	–	–

From patent US20060079453A1, “Hla binding peptides and their uses” (priority 2002, published 2006)
